Where “and” joins values, the source holds several entries; their conditions need not be identical. Equal entries are not always repeated.
Legend:
[1] = system: HEK293 cells; experiment: Intracellular NAD+ in HEK293 cells after NaMN or NR (diaphorase-based assay); assay type: cell-based, human; details: HEK293, 1 mM, 8 h incubation, FIG. 1
Description: (§1) The ability of nicotinic acid mononucleotide, NaMN, to serve as an NAD^+ enhancing agent in mammalian cell lines, Neuro2a and HEK293 cells was examined after an 8 h incubation. NaMN was added to cell growth media at a concentration of 1 mM. All cell treatments were done in duplicate. Nicotinamide riboside (NR) at 1 mM concentration was performed as a positive control. Untreated cells served as negative controls. Cells were treated for the allotted time then harvested by trysin detachment and pelleting. Cells were counted by haemocytometer and then lysed by treatment with 100 μL perchloric acid (7%). Lysates were then neutralized by treatment with NaOH and K2PO4 solutions. NAD^+ concentrations were determined by a diaphorase-based assay. NAD^+ standards were also run to establish a standard curve. The results are graphically depicted in FIG. 1.

[2] = system: Neuro2a cells; experiment: Intracellular NAD+ in Neuro2a cells after NaMN or NR (diaphorase-based assay); assay type: cell-based; details: 1 mM, 8 h incubation, FIG. 1
Description: as §1

[3] = system: tissue NAD concentrations; experiment: Tissue NAD concentrations in mice 4 h after i.p. injection (cycling assay); assay type: in vivo; details: 500 mg/kg i.p. single dose, vs PBS control
Description: Sterile solutions of O-methyl-NaMN and O-ethylNaMN were prepared by combination with phosphate buffered saline for injection into mice. Mice were injected by intraperitoneal injection at a single dosage of 500 mg/kg. All mice were weighed to achieve correct injection volume. Each group was composed of 5 mice, and mice were sacrificed at 4 hours. Control mice received only PBS. At sacrifice, mice were first injected with an anesthetic dose of ketamine to obtain blood by cardiac puncture. Then mice were euthanized and tissues harvested and frozen immediately in liquid nitrogen.
To determine tissue NAD concentrations, tissues were weighed and pulverized in liquid nitrogen. Perchloric acid (7%) was then added to pulverized tissue samples and neutralized by NaOH and 250 mM potassium phosphate buffer pH 8.5. Samples were pelleted to remove insoluble material. NAD concentrations were determined by cycling assay as published (Li et al., Methods in molecular biology 1241, 39-48, doi:10.1007/978-1-4939-1875-1_4 (2015)). […] This property is desirable, as effects expected from NAD enhancement in muscle include mitochondrial biogenesis and improved insulin sensitivity, as noted for other agents that increase NAD concentrations in this tissue^3. In fact, the extent of NAD raising exceeds those observed for other agents.

[4] = system: C2C12 cells; experiment: Cellular NAD at 14 h in C2C12 cells (cycling assay); assay type: cell-based, murine; set-up: cellular NAD: unit not given here
Description: (§2) Neu2a, HEK293, HEPG2 and C2C12 cells were cultured and the dosage of the corresponding compound was increased by amounts of 0, 100 μM, 400 μM and 800 μM for each cell line. Each experiment was performed in triplicate. Cells were incubated for a period of 14 hr. At termination of incubation, media was removed and cells were treated with trypsin to gently detach and cells counted. Cell pellets were obtained by centrifugation, and then […] of 7% perchloric acid was added to extract NAD. Extracts obtained were then neutralized by addition of NaOH and 250 mM potassium phosphate buffer pH 8.5. NAD was determined by a cycling assay that measures NAD concentrations by comparison to a standard curve (Li et al., 2015).

[5] = system: HEK293 cells; experiment: Cellular NAD at 14 h in HEK293 cells (cycling assay); assay type: cell-based, human; set-up: unit not given here
Description: as §2

[6] = system: HEPG2 cells; experiment: Cellular NAD at 14 h in HEPG2 cells (cycling assay); assay type: cell-based; set-up: unit not given here
Description: as §2

[7] = system: Neu2a cells; experiment: Cellular NAD at 14 h in Neu2a cells (cycling assay); assay type: cell-based; set-up: cellular NAD: unit not given here
Description: as §2

[8] = system: HEK-293 cells; experiment: NAD+ concentration in HEK-293 cells after 24 h EtNaMN (NAD+ cycling assay); assay type: cell-based, human
Description: HEK-293 cells were treated with 0 μM, 250 μM, and 500 μM of ((2R,3R,4S,5R)-3,4-dihydroxy-5-(3-(ethoxycarbonyl)pyridin-1-ium-1-yl)tetrahydrofuran-2-yl)methyl hydrogen phosphate (EtNaMN) at an initial density of 500,000 cells per well. After 24 h treatment, the NAD^+ concentration was determined using a known NAD^+ cycling assay (Jacobson, E. L. et al., Arch. Biochem. Biophys., 175: 627-634 (1976)). The cells were washed with PBS, counted by haemocytometry and pelleted. The cells were then treated with 7% perchloric acid, and then neutralized with 1 M NaOH and 500 mM potassium phosphate pH 8.5. NAD^+ contents were then measured on a plate reader using diaphorase and lactate dehydrogenase using Resazurin as a dye that is reduced to rezarufin (emission 560 nm). NAD^+ levels were quantitated using a standard curve using known NAD^+ concentrations. NAD^+ concentrations are determined to nmol NAD^+/10^6 cells.

Structure (SMILES) | intracellular NAD+ content vs untreated cells [1] | intracellular NAD+ content vs untreated cells [2] | increase in tissue NAD, blood [3] | increase in tissue NAD, kidney [3] | increase in tissue NAD, skeletal muscle [3] | cellular NAD ([4]; C2C12, 100 μM) | cellular NAD ([4]; C2C12, 400 μM) | cellular NAD ([4]; C2C12, 800 μM) | cellular NAD ([5]; HEK293, 100 μM) | cellular NAD ([5]; HEK293, 400 μM) | cellular NAD ([5]; HEK293, 800 μM) | cellular NAD ([6]; HEPG2, 100 μM) | cellular NAD ([6]; HEPG2, 400 μM) | cellular NAD ([6]; HEPG2, 800 μM) | cellular NAD ([7]; 100 μM) | cellular NAD ([7]; 400 μM) | cellular NAD ([7]; 800 μM) | other results
O=C(O)c1ccc[n+]([C@@H]2O[C@H](COP(=O)(O)O)[C@@H](O)[C@H]2O)c1 [NaMN, nicotinic acid mononucleotide] | No intracellular increase in NAD^+ | No intracellular increase in NAD^+ |  |  |  |  |  |  |  |  |  |  |  |  |  |  |  | 
NC(=O)c1ccc[n+]([C@@H]2O[C@H](CO)[C@@H](O)[C@H]2O)c1 [NR, Nicotinamide riboside] | increased NAD^+ contents in cells | increased NAD^+ contents in cells |  |  |  |  |  |  |  |  |  |  |  |  |  |  |  | 
COC(=O)c1ccc[n+]([C@@H]2O[C@H](COP(=O)([O-])O)[C@H](O)[C@@H]2O)c1 [O-MeNaMN, ((2R,3R,4S,5R)-3,4-dihydroxy-5-(3-(methoxycarbonyl)pyridin-1-ium-1-yl)tetrahydrofuran-2-yl)methyl hydrogen phosphate] |  |  | Neither ethyl nor methyl derivatives appeared active as NAD enhancers in blood | ~2.5 fold | unique capability to increase skeletal muscle NAD concentrations | 2864 ± 565 | 2596 ± 572 | 2574 ± 355 | 1178 ± 65 | 947 ± 101 | 1440 ± 204 | 2227 ± 280 | 1663 ± 61 | 2383 ± 155 | 1204 ± 158 | 1523 ± 145 | 2125 ± 187 | increase in cellular NAD concentrations vs control ([4]; all concentrations tested (100, 400, 800 μM), cell line not given, figures fit C2C12): at least 70%; increase in cellular NAD concentrations vs control (fold, in words) ([7]; 800 μM): more than two fold
CCOC(=O)c1ccc[n+]([C@@H]2O[C@H](COP(=O)([O-])O)[C@H](O)[C@@H]2O)c1 [O-EtNaMN, ((2R,3R,4S,5R)-3,4-dihydroxy-5-(3-(ethoxycarbonyl)pyridin-1-ium-1-yl)tetrahydrofuran-2-yl)methyl hydrogen phosphate] |  |  | increases in blood were not apparent | approximately twofold | no apparent effect | 1886 ± 183 | 1766 ± 69.5 | 2320 ± 208 | 1128 ± 95 | 1144 ± 132 | 1133 ± 168 | 2222 ± 99 | 2331 ± 429 | 2287 ± 181 | 1624 ± 24 | 1727 ± 40.8 | 1744 ± 151 | NAD+ Concentration ([8]; HEK293, 250 μM EtNaMN): 220 μM ± 42 μM; NAD+ Concentration relative to control ([8]; HEK293, 250 μM EtNaMN): 1.29 and 1.29 ± 0.24; NAD+ Concentration ([8]; HEK293, 500 μM EtNaMN): 270 μM ± 35 μM; NAD+ Concentration relative to control ([8]; HEK293, 500 μM EtNaMN): 1.59 and 1.59 ± 0.21; increase in tissue NAD, liver ([3]; liver): greater than twofold; increase in NAD concentrations vs control ([4]; 800 μM, cell line not given, figures fit C2C12): 68%; increase in cellular NAD vs control ([7]; 100 μM): ~40%; increase in cellular NAD concentrations vs control ([7]; 800 μM): 50%

Reference: US20210388018A1, “METHYL AND ETHYL NICOTINATE-RIBOSIDE-5-PHOSPHATES, PREPARATION THEREOF AND METHODS OF USE THEREOF” (Cornell University, priority 2018, published 2021)
